# Experimental data taken from PubChem BioAssay AID179 (DTP/NCI, 2004).
# The source made the active and inactive calls.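 The calls were made as follows: active = compounds giving half or more protection of infected cells from virus-caused growth loss, again on retest; inactive = the rest.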 Where a SMILES comes first, the peptide text is derived from it.
# System: CEM cells HIV-1 protection, formazan growth assay
# Assay: NCI AIDS Antiviral Assay
# Conditions: for IC50: measured here: growth of uninfected CEM cells
# Description: The ability of compounds to protect human CEM cells from HIV-1 infection is measured as a screen for new compounds capable of inhibiting the HIV virus. Five concentrations of drug were tested on uninfected and infected cells and cell growth was measured using a soluble formazan assay. […] Compounds that provided at least 50% protection were retested. Compounds that provided at least 50% protection on retest were listed as moderately active. Compounds that reproducibly provided 100% protection were listed as confirmed active. […] Note that the inability to provide protection could be due to toxicity.
SMILES,EC50 [µM],IC50 [µM],outcome
Cn1cc(C=O)c2nccnc21,> 1050,> 1050,
C=C1C(=O)OC(CCCCCCCCCCCCC)C1C(=O)O (stereo unspecified),> 3.24,> 3.24,
CC(C)C(=O)/C=C/c1ccc(Cl)cc1,,,inactive
O=C1C(c2ccccc2)=C2C(=C1c1ccccc1)c1cccc3cccc2c13,,,inactive
C=C[C@@H]1c2ccccc2C=C[C@]1(CCC1(C)OCCO1)C1=NC(COC)[C@H](c2ccccc2)O1 (stereo partly specified),> 8.13,> 8.13,
CN(C)CC(/C(Cc1ccccc1)=N\NC(=O)c1ccncc1)c1ccccc1 (stereo unspecified),> 245,93.3,
CC(OC1C(N)C(O)OC(CO)C1O)C(=O)O (stereo unspecified),,,inactive
O=C1C(F)=CC(COC(c2ccccc2)(c2ccccc2)c2ccccc2)OC1n1cc(F)c(=O)[nH]c1=O (stereo unspecified),> 2,0.479,
CCOC(=O)C(=CNC(=S)Nc1ccc(OCC)cc1)C(=O)OCC,> 200,112,
C=CCC1C2CCC(O[Si](C(C)C)(C(C)C)C(C)C)(C(C(=O)OC)C2)C1O (stereo unspecified),> 200,91.2,
O=c1[nH]cnc2c1ncn2C1SC(CO)C(O)C1O (stereo unspecified),> 200,117,
CN1CCC2(CC1)C(=O)N(NC(N)=O)C(=O)C2c1ccccc1 (stereo unspecified),> 200,> 200,
CC(=O)NC(CCCNC(=O)N(CCCl)N=O)C(=O)NCc1ccccc1 (stereo unspecified),> 631,69.2,
C/C=C1\CN2CCc3c([nH]c4ccccc34)C2C=C1CCO (stereo unspecified),> 170,> 170,
C1CN(/N=N/N2CCOCC2)CCO1,> 200,> 200,
Clc1ccc(C2N3CCCCC3[C@@H]3c4[nH]c5ccccc5c4CCN23)cc1 (stereo partly specified),> 19.1,> 19.1,
O=C1/C(=C\c2cccc(Oc3ccccc3)c2)S(=O)(=O)C(c2ccccc2)N1c1cccc(Cl)c1 (stereo unspecified),> 200,12.9,
O=c1ccc(=O)n(-c2ccc(Br)cc2)[nH]1,> 26.9,> 26.9,
Cc1cc(C)c(-n2c(-c3ccccc3)cs/c2=N\N=C2C=C(C(C)(C)C)C(=O)C(C(C)(C)C)=C2)c(C)c1,> 14.1,> 14.1,
CCOC(=O)c1[nH]n(-c2ccccc2)c(=O)c1/C=N/C(=S)N=Nc1c(O)[nH]c2ccccc12,> 200,> 100,
COCc1cn(C2C=CC(CO)O2)c(=O)[nH]c1=O (stereo unspecified),17.4,123,

SMILES,EC50 [µM],IC50 [µM],outcome
NC(=O)C(NC=O)c1ccccc1 (stereo unspecified),> 200,> 200,
NCCCc1c(-c2ccccc2)nc(N)[nH]c1=O,> 200,> 200,
CC(C)(C)OC(=O)NC(Cc1ccc(OC(C)(C)C)cc1)C(=O)N[C@H]1CCC[C@H]1C(=O)NC(Cc1ccccc1)C(=O)N1CCCC1C(N)=O (stereo partly specified),> 100,> 100,
CS(=O)(=O)N(N(CCCl)S(=O)(=O)c1ccccc1)S(C)(=O)=O,> 126,79.4,
CC1(Br)C(=O)NC(=O)N(C2CC(N=[N+]=[N-])C(CO)O2)C1N=[N+]=[N-] (stereo unspecified),,89.1,active
NCCCN=c1ccc2c3c1c(O)c1c(O)ccc(=O)c1c3[nH]n2CCNCCO,> 525,1.07,
CC1(C)CNC[C@@]2(C)OCCOCCOCCO[C@](C)(CNCC(C)(C)NC2=O)C(=O)N1,> 200,> 200,
CC1=N/C(=C\c2ccc(C)cc2)C(=O)O1,> 129,> 129,inactive
O=c1[nH]cnc2c1ccn2C1OC(CO)C(O)C1O (stereo unspecified),> 20,2.04,
Cc1ccc(C2OC(COCc3ccc(Cl)cc3)C(OCc3ccc(Cl)cc3)C2O)cc1 (stereo unspecified),,,inactive
CN(CC1=C(O)C(=O)C(CN(C)Cc2c(O)ccc3ccccc23)=C(O)C1=O)Cc1c(O)ccc2ccccc12,> 17.4,> 17.4,
CCCNCC(O)COc1ccc2c3c(c(=O)oc2c1)CCC3 (stereo unspecified),> 200,87.1,
O=[N+]([O-])c1cnc(/C=[N+](\[O-])CCO)n1CCO,,,inactive
COc1ccc(OC)c(-c2cc(=O)c3c(OC)c(OC)c(OC)c(OC)c3o2)c1,> 200,29.5,
Cc1cccc2c1C(=O)C(C1OC(=O)c3ccccc31)C2 (stereo unspecified),> 100,> 100,
N/C(=N\N=C\c1ccccn1)NO,> 200,33.1,
COc1ccc(CCNCCCC2c3ccccc3-c3ccccc32)cc1OC,> 87.1,4.9,
Cc1c(C#N)c(N)[nH]c(=S)c1C#N,> 200,> 200,
O=S(=O)(OCCSS(=O)(=O)c1ccccc1)c1ccccc1,> 437,> 437,
CCOC(=O)C(C)(C)Oc1ccc2c(=O)cc(-c3ccc(Cl)cc3)oc2c1,> 18.6,> 18.6,
CC(=O)/C(=C(/Br)I)c1ccccc1,,,inactive

SMILES,EC50 [µM],IC50 [µM],outcome
O=C(/C=C/c1ccc(OCCSCCCCCCCCCCSCCOc2ccc(/C=C/C(=O)c3ccc(Cl)cc3)cc2)cc1)c1ccc(Cl)cc1,> 12.9,12,
C/C(=N\O)[C@H]1CC[C@H]2[C@@H]3CCC4=C/C(=N/O)CC[C@]4(C)[C@H]3C(=O)C[C@]12C,> 200,39.8,
S=C(/C=C1\SC(=Nc2ccccc2)C(=Nc2ccccc2)N1c1ccccc1)Nc1ccccc1,> 200,> 200,
COc1cc(Cc2nnc(SC)nc2C)cc(OC)c1OC,10,22.4,
O=C1CN(C2CCCCC2)CC(=O)N2C(c3ccccc3)CCCN12 (stereo unspecified),> 200,> 200,
CC(=O)OC1C(CN2CCOC2=O)OC(n2cc(C)c(=O)[nH]c2=O)C1OC(C)=O (stereo unspecified),> 200,> 200,
O=[C]=[Fe+].O=[C]=[Fe].[C-]1=CCC=C1.[CH-]=O.[CH-]=O.c1cc[cH-]c1,> 200,21.4,
COC(=O)c1cc(C(=O)c2cc(C(=O)OC)c(OC)c(Br)c2C)c(C)c(Br)c1OC,> 200,> 200,
CCC(C(=O)NNC(=O)c1cc(OC)c(OC)c(OC)c1)c1ccccc1 (stereo unspecified),> 200,195,
OCC1OC(n2nc(-c3ccccc3)nc2-c2cnccn2)C(O)C(O)C1O (stereo unspecified),> 200,> 200,
O=C1CS(=O)(=O)C(c2ccccc2Cl)N1N1C(=O)CS(=O)(=O)C1c1ccccc1Cl (stereo unspecified),> 200,46.8,
Cc1ccc(/C=C2\Cc3cc(C)c(C)cc3C2=O)c(C(=O)O)c1,> 200,38.9,
FC1(F)SC2CCCCCCCCCCC2C1(F)F (stereo unspecified),> 200,91.2,
Cc1nc2ccccc2c(=O)n1NC(=S)Nc1ccc(Cl)cc1,> 39.8,> 39.8,
CN(C)C(=S)/N=c1\ssc(=S)n1C,,,inactive
O=C1c2ccccc2C(=O)c2nc(-c3ccccc3)c(-c3ccccc3)nc21,,,inactive
Cc1ccc(N=C2S/C(=C3/CCC=C3N3CCOCC3)N(c3ccc(Cl)cc3)C2=Nc2ccc(C)cc2)cc1,> 200,> 200,
CCn1c2ccccc2c2cc(N=Nc3ccc(C#N)cc3)ccc21,10.7,> 200,
CS/C=C\C(=O)O[C@H]1C[C@@H]2[C@@H](O)c3occ(C)c3C[C@]2(C)[C@@H](C)C1,> 200,30.2,
CCCCCCCCCC1(N=[N+]=[N-])C(=O)c2ccccc2N(C)C1=O (stereo unspecified),> 200,33.9,
Nc1ncc2c(ncn2CCO)n1,> 282,> 282,

SMILES,EC50 [µM],IC50 [µM],outcome
CS(=O)(=O)OC[C@@H]1OCO[C@H]1COS(C)(=O)=O,> 200,> 200,
CC(C)CC(NC(=O)C(Cc1ccc(O)cc1)NC(=O)C(CO)NC(=O)C(N)CCC(N)=O)C(=O)NCC(=O)O (stereo unspecified) (H-QSYLG-OH; configuration not given here),,,inactive
COC(=O)C1=C(O)C(C(=O)OC)[C@@]2(O)[C@@H](C(=O)OC)[C@H](C)C[C@@H]1[C@@H]2C(=O)OC (stereo partly specified),> 200,39.8,
C(=N\Nc1ccc2ccccc2n1)/c1ccccn1,> 20,1.1,
CC(=O)OC[C@@H](OC(C)=O)[C@@H](OC(C)=O)[C@H]1OC[C@@H]2C[C@H]([C@H]1OC(C)=O)N(Cc1ccccc1)O2,93.3,> 200,
O=[N+]([O-])c1ccc(C2=Nn3cnnc3SC2)o1,,,inactive
O=c1[nH]nc(-c2ccc([N+](=O)[O-])cc2)n1/N=C/c1ccc([N+](=O)[O-])cc1,> 200,132,
Cc1nnc(N)nc1/C=C\c1ccc(N(C)C)cc1,> 200,3.47,
CC(O)C1=CCC2c3[nH]c4ccccc4c3CCN2C1 (stereo unspecified),> 23.4,> 23.4,
N/C(=N\C(=S)N1CCCCC1)N1CCCCC1,,,inactive
COC(=O)c1cc(C(=CCCO)c2cc(Cl)c(OC)c(C(=O)OC)c2)cc(Cl)c1OC,> 200,24.5,
CC(C)OP(=O)(OC(C)C)C(=Nc1ccc(N=C(NNc2ccc([N+](=O)[O-])cc2)P(=O)(OC(C)C)OC(C)C)cc1)NNc1ccc([N+](=O)[O-])cc1,> 3.55,> 3.55,
CCOP(=O)(CN=C(c1ccccc1)c1ccccc1)OCC,> 200,> 200,
COc1cc(CNc2cnc3ccc(N)cc3n2)cc(OC)c1OC,> 525,35.5,
O=S1(c2ccccc2)=NC(=S)Nc2ccccc21 (stereo unspecified),17.4,> 200,
O=S(=O)(O)OC1CCCC1S(=O)(=O)O (stereo unspecified),> 200,> 200,
COc1ccc2c3c([nH]c2c1[N+](=O)[O-])C(C)N(Cc1ccc([N+](=O)[O-])cc1)CC3 (stereo unspecified),,,inactive
O=S(=O)(O)C(O)CCCC(O)S(=O)(=O)O (stereo unspecified),> 200,10.7,
N/C(=N\N=C/c1cc(Cl)cc(Cl)c1O)NO,,,inactive
c1ccc([P+](Cc2cccc3c2Cc2ccccc2-3)(c2ccccc2)c2ccccc2)cc1,> 200,0.891,
Nc1ccc(C(=O)NN2C(=O)C(Cl)C2c2cccc([N+](=O)[O-])c2)cc1 (stereo unspecified),> 200,10.2,
